Reference: patent US20250319162A1, “METHODS AND MATERIALS FOR TREATING OBESITY” (Regents of the University of California, priority 2024, published 2025)
“Also recorded” adds a separate entry of the source.

Assays:
immortalized adipocytes = test: In vitro lipolysis (FFA and glycerol release) in immortalized adipocytes; type: cell-based, mice
Description: Primary preadipocytes from Rala^f/f mice were immortalized by retroviral transduction of pBabe-zeo-LT-ST (SV40) and selection by Zeocin^75. Single-cell clones were selected and tested for differentiation capacity. […] To generate Rala KO cells, immortalized Rala^f/f (WT) preadipocytes were transduced with lentiviral Cre with 8 μg/mL Polybrene for 12 hours, then cultured in DMEM/F12-FBS medium. Cre recombinase efficiency was tested in preadipocytes and adipocytes. Once 95-100% confluency was reached (day 0), differentiation was induced as described above. On the day of the experiment, cells were starved in DMEM/F12 medium for 3 hours before treatments.
Fully differentiated primary adipocytes in a 24-well plate were serum-starved in lipolysis medium (2% BSA-phenol-red-free DMEM) for 3 hours. For insulin treatment, 100 nM insulin was added to cells for 30 minutes starting at 2.5 hours of starvation. After starvation, the medium was replaced with 0.5 mL fresh lipolysis medium with vehicle, 1 μM CL-316,243 (CL), 100 nM insulin or in combination. The medium was collected 1 hour after incubation at 37° C. Released FFAs and free glycerol levels were measured using 100 μL medium with a NEFA kit (WAKO) and Free Glycerol Reagent (Sigma) according to the manufacturer's protocol.

[1] = In vivo insulin-suppressed lipolysis; conditions: single injection of insulin, fasted CD-fed control and Rala AKO mice
Description: CD-fed mice were used for in vivo lipolysis. For CL-induced lipolysis, ad libitum-fed mice were i.p. injected with PBS or CL (1 mg/kg) for 60 minutes. Circulating FFAs and free glycerol levels were measured using 2 μL plasma with a NEFA kit (WAKO) and Free Glycerol Reagent (Sigma), respectively. For insulin-suppressed lipolysis, overnight-fasted mice were i.p. injected with insulin (0.5 U/kg) for 60 minutes. Circulating FFAs and free glycerol levels were measured at the indicated conditions.

[2] = system: primary differentiated adipocytes; test: Seahorse oxygen consumption rate in differentiated primary adipocytes; type: cell-based, mice; conditions: addition of etomoxir
Description: The cellular oxygen consumption rate (OCR) was measured using an eXF96 Extracellular Flux Analyzer and analyzed by Agilent Seahorse Wave Software (Seahorse Bioscience). Before performing the assay, 2,500 primary preadipocytes were seeded and differentiated in XF96 microplates. Once fully differentiated, the adipocyte culture medium was changed to assay medium containing 25 mM glucose, 1 mM pyruvate and 2 mM L-glutamine, and 0.5 mM carnitine without phenol red or sodium bicarbonate for 3 hours. Before taking measurements, cells were incubated in a CO2-free incubator for 15 minutes. Basal rates of respiration were measured in assay medium and followed with sequential injections of oligomycin (2 μM), FCCP (0.5 μM) and rotenone with antimycin A (each 0.5 μM). Oxygen consumption values were normalized to total protein content.

[3] = RalA inhibitor treatment of mice: body weight, tissue weight, blood glucose; type: in vivo
From the text: To test the effects of RalA inhibition in reducing body weight, tissue weight and blood glucose level in mice, mice were weighed before injecting with either RalA inhibitor, BQU57, or DMSO (vehicle). Post injection, mice were weighed every 2 days.

[4] = system: primary and immortalized adipocytes; test: TMRM live-cell imaging of mitochondrial membrane potential in adipocytes; type: cell-based, mice; conditions: adipocytes treated with 1 μM CL-316,243 for indicated times
From the text: FIGS. 10A-10J. […] FIG. 10A: Calculation of individual OCR in differentiated primary adipocytes (n=8 biological samples). P=0.0008, P=0.0175, P=0.0042. FIG. 10B: Representative immunoblot of RalA and β-Tubulin in immortalized preadipocytes and differentiated adipocytes. (n=3 biological samples). FIG. 10C: Quantification of mean TMRM fluorescence intensity in primary adipocytes and immortalized adipocytes (n=3 independent cells). P<0.0001, P<0.0001. FIG. 10D: Time course TMRM intensity quantification in primary and immortalized adipocytes (n=4 biological samples). Adipocytes were treated with 1 μM CL-316,243 (CL) for indicated times. P=0.0015, P=0.0044 (left panel). P<0.0001, P=0.0154, P=0.0095 (right panel). FIGS. 10E and 10F: Quantification of NEFA (FIG. 10E) and free glycerol (FIG. 10F) released into medium from immortalized adipocytes (n=3 biological samples). Cells were treated with 1 μM CL, 100 nM insulin, or in combination prior to medium collection. P=0.0301, P=0.0051 (FIG. 10F). FIGS. 10G and 10H: Plasma levels of NEFA (FIG. 10G) and free glycerol (FIG. 10H) in CD-fed Rala^f/f and Rala^AKO mice (n=6). P=0.0027, P=0.0173 (FIG. 10H). Mice were i.p. injected with CL or vehicle prior to blood sampling. FIGS. 10I and 10J: Plasma levels of NEFA (FIG. 10I) and free glycerol (FIG. 10J) in CD-fed Rala^f/f (n=4) and Rala^AKO (n=5) mice. […]

insulin: insulin used at 100 nM in cells or injected i.p. (human insulin, Sigma)
suppression of CL-induced FFA release (immortalized adipocytes; 100 nM insulin with 1 μM CL, both WT and KO cells): approximately 50%
plasma FFA levels [1]: reduced FFA levels

CCOC(=O)[C@@]1(CCCCCCOc2ccc(Cl)cc2)CO1 [etomoxir]
difference in maximal respiration (OCR) between KO and control adipocytes [2]: blunted

Cc1nn(C)c2c1C(c1ccc(C(F)(F)F)cc1)C(C#N)=C(N)O2 (centres unmarked) [BQU57]
body weight ([3]; mice injected with BQU57 vs DMSO vehicle, weighed every 2 days, 23 days of treatment): significant weight loss; also recorded: reduced body weight
blood glucose level ([3]; mice, BQU57 vs vehicle group): significant reduction in the blood glucose level
subcutaneous WAT (sWAT) weight ([3]; mice, post treatment with BQU57): marked reduction of subcutaneous WAT (sWAT) weight

C[C@H](Cc1ccc2c(c1)OC(C(=O)[O-])(C(=O)[O-])O2)NC[C@H](O)c1cccc(Cl)c1.[Na+].[Na+] [CL-316,243]
FFA and glycerol release (immortalized adipocytes; 1 μM CL, KO and WT immortalized adipocytes): robustly stimulated FFA and glycerol release
TMRM signal (mitochondrial membrane potential) [4]: TMRM signal declined quickly
